These results are taken from ChEMBL document CHEMBL1136697, “3D-QSAR studies on thieno[3,2-d]pyrimidines as phosphodiesterase IV inhibitors” (Bioorg Med Chem Lett, 2003).

For the test, the target named is Phosphodiesterase 4 (Cavia porcellus). Nature of the test: Inhibitory activity against (PDE IV) phosphodiesterase IV in guinea pig articular tissue.

In turn, `c1ccc(CNc2nc(CN3CCCCC3)nc3ccsc23)cc1` showed an IC50 of 65 µM.

Regarding `CCCCc1nc(NCc2ccccc2)c2occc2n1`, the IC50 was 1.1 µM.

`c1ccc(CNc2nc(CCCCOc3ccccc3)nc3ccsc23)cc1` showed an IC50 of 4.7 µM.

One may read the IC50 as the concentration needed to halve the response being measured. A lower IC50 goes with greater potency in that assay.
